Eight compounds from patent US7981918B2, “Cyclohexylpyrazole-lactam derivatives as inhibitors of 11-beta-hydroxysteroid dehydrogenase 1” (Eli Lilly and Company, priority 2006, dated 2011) can be followed below.

The target of one experiment is T1, 11β-HSD1 (Homo sapiens, UniProt P28845).
T1 construct: containing 12 ng/mL hTNFα to induce expression of 11β-HSD1; endogenous in cells; host or cells: primary human aortic smooth muscle cells (AoSMC), induced with hTNFα
Put plainly: Human Aortic Smooth Muscle Cell Assay (cortisone to cortisol). The class given is cell-based. As to conditions: primary human aortic smooth muscle cells (AoSMC), hTNFα-induced 11β-HSD1, cortisol by immunoassay. The procedure:
Human Aortic Smooth Muscle Cell Assay
Primary human aortic smooth muscle cells (AoSMC) are cultured in 5% FBS growth medium to a passage number of 6, then pelleted by centrifugation and resuspended at a density of 9×10^4 cells/mL in 0.5% FBS assay medium containing 12 ng/mL hTNFα to induce expression of 11β-HSD1. Cells are seeded into 96-well tissue culture assay plates at 100 μL/well (9×10^3 cells/well) and incubated for 48 hours at 37° C., 5% CO2. Following induction, cells are incubated for 4 hours at 37° C., 5% CO2 in assay medium containing test compounds then treated with 10 μL/well of 10 μM cortisone solubilized in assay medium, and incubated for 16 hours at 37° C., 5% CO2. Medium from each well is transferred to a plate for subsequent analysis of cortisol using a competitive fluorescence resonance time resolved immunoassay. In solution, an allophycocyanin (APC)-cortisol conjugate and free cortisol analyte compete for binding to a mouse anti-cortisol antibody/Europium (Eu)-anti mouse IgG complex. Higher levels of free cortisol result in diminishing energy transfer from the Europium-IgG to the APC-cortisol complex resulting in less APC fluorescence. Fluorescent intensities for Europium and APC are measured using a LJL Analyst AD. Europium and APC excitation is measured using 360 nm excitation and 615 nm and 650 nm emission filters respectively. Time resolved parameters for Europuium were 1000 μs integration time with a 200 μs delay. APC parameters are set at 150 μs integration time with a 50 μs delay. Fluorescent intensities measured for APC are modified by dividing by the Eu fluorescence (APC/Eu). This ratio is then used to determine the unknown cortisol concentration by interpolation using a cortisol standard curve fitted with a 4-parameter logistic equation. These concentrations are then used to determine compound activity by plotting concentration versus % inhibition, fitting with a 4-parameter curve and reporting the IC50.

Experiment [1] has as its target recombinant human 11β-HSD type 1 enzyme (Homo sapiens, UniProt P28845). Put plainly: 11β-HSD Type 1 Enzyme Assay (NADPH fluorescence). As to conditions: three hour incubation at room temperature, read-out: Human 11-βHSD1 IC50. The class given is biochemical. The procedure:
11β-HSD Type 1 Enzyme Assay
Human 11β-HSD type 1 activity is measured by assaying NADPH production by fluorescence assay. Solid compounds are dissolved in DMSO to a concentration of 10 mM. Twenty microliters of each are then transferred to a column of a 96-well polypropylene Nunc plate where they are further diluted 50-fold followed by subsequent two-fold titration, ten times across the plate with additional DMSO using a Tecan Genesis 200 automated system. Plates are then transferred to a Tecan Freedom 200 system with an attached Tecan Temo 96-well head and an Ultra 384 plate reader. Reagents are supplied in 96-well polypropylene Nunc plates and are dispensed individually into black 96-well Molecular Devices High Efficiency assay plates (40 μL/well capacity) in the following fashion: 9 μL/well of substrate (2.22 mM NADP, 55.5 μM Cortisol, 10 mM Tris, 0.25% Prionex, 0.1% Triton X100), 3 μL/well of water to compound wells or 3 μL to control and standard wells, 6 μL/well recombinant human 11β-HSD type 1 enzyme, 2 μL/well of compound dilutions. For ultimate calculation of percent inhibition, a series of wells are added that represent assay minimum and maximum: one set containing substrate with 667 μM carbenoxolone (background), and another set containing substrate and enzyme without compound (maximum signal). Final DMSO concentration is 0.5% for all compounds, controls and standards. Plates are then placed on a shaker by the robotic arm of the Tecan for 15 seconds before being covered and stacked for a three hour incubation period at room temperature. Upon completion of this incubation, the Tecan robotic arm removes each plate individually from the stacker and places them in position for addition of 5 μL/well of a 250 μM carbenoxolone solution to stop the enzymatic reaction. Plates are then shaken once more for 15 seconds then placed into an Ultra 384 microplate reader (355EX/460EM) for detection of NADPH fluorescence.

The next experiment has as its system cortisone conversion. Put plainly: Acute In Vivo Cortisone Conversion Assay. Also noted: species or system mice (male C57BL/6). As to conditions: Mus musculus; mice, oral dose of 10 mg/kg, cortisone challenge after 16 hours, serum cortisol. As to the method: Acute In Vivo Cortisone Conversion Assay
In general, compounds are dosed orally into mice, the mice are challenged with a subcutaneous injection of cortisone at a set timepoint after compound injection, and the blood of each animal is collected some time later. Separated serum is then isolated and analyzed for levels of cortisone and cortisol by LC-MS/MS, followed by calculation of mean cortisol and percent inhibition of each dosing group. Specifically, male C57BL/6 mice are obtained from Harlan Sprague Dawley at average weight of 25 grams. Exact weights are taken upon arrival and the mice randomized into groups of similar weights. Compounds are prepared in 1% w-w HEC, 0.25% w-w polysorbate 80, 0.05% w-w Dow Corning antifoam #1510-US at various doses based on assumed average weight of 25 grams. Compounds are dosed orally, 200 μl per animal, followed by a subcutaneous dose, 200 μl per animal, of 30 mg/kg cortisone at 1 to 24 hours post compound dose. At 10 minutes post cortisone challenge, each animal is euthanized for 1 minute in a CO2 chamber, followed by blood collection via cardiac puncture into serum separator tubes. Once fully clotted, tubes are spun at 2500×g, 4° C. for 15 minutes, the serum transferred to wells of 96-well plates (Corning Inc, Costar #4410, cluster tubes, 1.2 ml, polypropylene), and the plates are frozen at −20° C. until analysis by LC-MS/MS. For analysis, serum samples are thawed and the proteins are precipitated by the addition of acetonitrile containing d4-cortisol internal standard. Samples are vortex mixed and centrifuged. The supernatant is removed and dried under a stream of warm nitrogen. Extracts are reconstituted in methanol/water (1:1) and injected onto the LC-MS/MS system. The levels of cortisone and cortisol are assayed by selective reaction monitoring mode following positive ACPI ionization on a triple quadrupole mass spectrophotometer.

The next experiment deals with T2, 11-βHSD2 enzyme (Homo sapiens, UniProt P80365).
T2 sequence (P80365 1-405): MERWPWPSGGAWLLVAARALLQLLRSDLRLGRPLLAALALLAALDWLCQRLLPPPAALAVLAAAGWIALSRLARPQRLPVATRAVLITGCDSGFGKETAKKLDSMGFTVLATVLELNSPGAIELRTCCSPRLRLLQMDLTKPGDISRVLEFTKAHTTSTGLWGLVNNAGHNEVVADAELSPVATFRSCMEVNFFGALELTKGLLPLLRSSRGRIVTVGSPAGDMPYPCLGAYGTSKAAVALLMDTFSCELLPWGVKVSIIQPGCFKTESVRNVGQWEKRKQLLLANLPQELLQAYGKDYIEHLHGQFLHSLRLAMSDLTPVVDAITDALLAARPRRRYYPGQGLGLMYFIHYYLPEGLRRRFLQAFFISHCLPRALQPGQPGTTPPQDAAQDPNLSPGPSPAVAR
Put plainly: Selectivity assay using the 11-βHSD2 enzyme. The class given is biochemical. As to conditions: selectivity 11-βHSD1 over 11-βHSD2. The source says:
Compounds of the invention can also tested for selectivity against 11-βHSD2 in an assay similar to that described for 11-βHSD1, but using the 11-βHSD2 enzyme. The assay using the 11-βHSD2 enzyme can be carried out by the methods described herein and supplemented by methods known in the art.

Structures are written as SMILES.

T1 sequence (P28845 whole entry): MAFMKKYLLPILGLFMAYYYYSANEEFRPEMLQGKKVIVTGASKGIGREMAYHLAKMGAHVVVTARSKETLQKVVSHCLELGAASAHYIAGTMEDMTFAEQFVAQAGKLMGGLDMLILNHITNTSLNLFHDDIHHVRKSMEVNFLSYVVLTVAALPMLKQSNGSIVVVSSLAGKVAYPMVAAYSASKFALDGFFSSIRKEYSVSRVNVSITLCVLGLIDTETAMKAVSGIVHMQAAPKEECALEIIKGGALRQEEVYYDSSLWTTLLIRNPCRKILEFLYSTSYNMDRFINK
recombinant human 11β-HSD type 1 enzyme, sequence (P28845 whole entry): as above

In the case of `O=C1C(Cc2c(Cl)cc(-c3ccccc3)cc2Cl)CCN1C1CCc2n[nH]cc2C1` (centres unmarked) [Example 20], it took 2 nM to reach half-maximal inhibition on 11β-HSD1 (IC50).
Consider `O=C1[C@H](Cc2c(Cl)cc(OCc3ccccc3)cc2Cl)CCN1[C@H]1CCc2n[nH]cc2C1` [Example 35, (3R,5S)-3-(4-Benzyloxy-2,6-dichloro-benzyl)-1-(4,5,6,7-tetrahydro-2H-indazol-5-yl)-pyrrolidin-2-one], for which the IC50 in experiment [1] was determined as 243 nM.
For the compound `COc1cc(Cl)c(CC2CCN(C3CCc4n[nH]cc4C3)C2=O)c(Cl)c1` (single isomer, unassigned) [Example 7, 3-(2,6-Dichloro-4-methoxy-benzyl)-1-(4,5,6,7-tetrahydro-2H-indazol-5-yl)-pyrrolidin-2-one], the IC50 in experiment [1] worked out at 37 nM.
In the case of `Cn1cc(-c2ccc(CC3CCN(C4CCc5n[nH]cc5C4)C3=O)c(Cl)c2)cn1` (centres unmarked) [Example 11, 3-[2-Chloro-4-(1-methyl-1H-pyrazol-4-yl)-benzyl]-1-(4,5,6,7-tetrahydro-2H-indazol-5-yl)-pyrrolidin-2-one], the IC50 against 11β-HSD1 stood at 24 nM.
`COc1cc(Cl)c(CC2CCN(C3CCc4n[nH]cc4C3)C2=O)c(Cl)c1` (racemic) [Example 1, 3-(2,6-Dichloro-4-methoxy-benzyl)-1-(4,5,6,7-tetrahydro-2H-indazol-5-yl)-pyrrolidin-2-one]: in experiment [1], the IC50 was found to be 100 nM.
On to `O=C1[C@H](Cc2c(Cl)cc(-c3ccc(F)nc3)cc2Cl)CCN1C1CCc2n[nH]cc2C1` (some centres unmarked) [Example 44], for which 10 mg/kg produced 92% inhibition in the experiment with cortisone conversion.
For `O=C1[C@H](Cc2c(Cl)cc(-c3ccc(F)cc3)cc2Cl)CCN1[C@H]1CCc2n[nH]cc2C1` [Example 36, (3R-5S)-(−)-3-(3,5-Dichloro-4′-fluoro-biphenyl-4-ylmethyl)-1-(4,5,6,7-tetrahydro-2H-indazol-5-yl)-pyrrolidin-2-one], the IC50 on 11β-HSD1 was 0.4 nM; in experiment [1], 276 nM. Further, 10 mg/kg produced 95% inhibition in the experiment on cortisone conversion. In addition, the “fold greater inhibition of 11-βHSD1 enzyme as compared to the inhibition of 11-βHSD2” value at 11-βHSD2 enzyme amounted to 535 fold.
The compound `O=C(c1ccc(-c2cc(Cl)c(C[C@@H]3CCN(C4CCc5n[nH]cc5C4)C3=O)c(Cl)c2)cc1)N1CCOCC1` (some centres unmarked) [Example 41] displayed an inhibition at 10 mg/kg with cortisone conversion of 84%.
